Here are results for 17 compounds from patent US12084472B2 (Ardelyx, Inc., priority 2015, dated 2024).

In this assay the target is T1, human TGR5 (Homo sapiens, UniProt Q8TDU6).
T1 construct: expressed in transfected cells; host or cells: HEK293
T1 sequence (Q8TDU6 1-330): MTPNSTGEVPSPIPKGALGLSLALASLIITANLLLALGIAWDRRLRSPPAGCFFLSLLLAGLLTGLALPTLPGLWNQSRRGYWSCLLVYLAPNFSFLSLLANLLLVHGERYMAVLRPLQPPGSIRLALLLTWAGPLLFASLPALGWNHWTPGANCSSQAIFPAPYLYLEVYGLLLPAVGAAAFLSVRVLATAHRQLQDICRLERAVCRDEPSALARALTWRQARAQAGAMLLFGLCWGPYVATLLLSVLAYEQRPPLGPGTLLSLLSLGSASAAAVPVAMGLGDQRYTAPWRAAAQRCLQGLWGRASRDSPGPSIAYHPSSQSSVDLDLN
Nature of the assay: Cell-based TGR5 assay (cAMP generation, HTRF). The conditions noted are these: HEK293 cells stably transfected with human TGR5; cAMP by HTRF; 30 minutes at 37° C.; read-out: pEC50 Human TGR5 (converted). A digest of the protocol: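 Read-out was HTRF detection of cAMP, converted to concentration via a standard curve and fitted (3-parameter logistic) for pEC50 and maximal response. Agonist stimulation used HEK293 cells stably transfected with human TGR5, incubated 30 min at 37° C in IBMX-containing buffer at 0.05 nM to 10 μM compound.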
Take `Cc1ccc(C(C)CCCC(=O)N(C[C@H](O)[C@@H](O)[C@H](O)[C@H](O)CO)C2CCOCC2)cc1CNC1(c2cnccc2-c2ccccc2OC2CC2)CC1` (stereo partly drawn) [Compound I-363, 5-{3-[({1-[4-(2-cyclopropoxyphenyl)pyridin-3-yl]cyclopropyl}amino)methyl]-4-methylphenyl}-N-(oxan-4-yl)-N-[(2S,3R,4R,5R)-2,3,4,5,6-pentahydroxyhexyl]hexanamide]: the EC50 is under 100 nM.

For the compound `CS(=O)(=O)NCCN(CCCCSc1ccc(Cl)c(COC2(c3cnccc3-c3ccccc3OC3CC3)CC2)c1)C(=O)[C@@H](O)[C@@H](O)[C@H](O)[C@@H](O)CO` [Compound I-575, (2S,3S,4R,5S)-N-(4-{[4-chloro-3-({1-[4-(2-cyclopropoxyphenyl)pyridin-3-yl]cyclopropoxy}methyl)phenyl]sulfanyl}butyl)-2,3,4,5,6-pentahydroxy-N-(2-methanesulfonamidoethyl) hexanamide], the EC50 is under 100 nM.

Regarding `Cc1cc(COC2(c3cnccc3-c3ccccc3OC3CC3)CC2)c(Cl)cc1CCCCN` [Compound I-166, 4-[5-chloro-4-({1-[4-(2-cyclopropoxyphenyl)pyridin-3-yl]cyclopropoxy}methyl)-2-methylphenyl]butan-1-amine], the EC50 is under 100 nM.

Regarding `O=C(O)CN1CCN(C(=O)CCCCc2cc(Cl)c(COC3(c4cnccc4-c4ccccc4OC4CC4)CC3)cc2Cl)CC1` [Compound I-88, 2-(4-(5-(2,5-dichloro-4-((1-(4-(2-cyclopropoxyphenyl)pyridin-3-yl)cyclopropoxy)methyl)phenyl)pentanoyl)piperazin-1-yl)acetic acid], the EC50 was under 100 nM.

With `Clc1cc(Cl)cc(CNC2(c3cnccc3-c3ccccc3OC3CC3)CC2)c1` [Compound I-44, 1-[4-(2-cyclopropoxyphenyl)pyridin-3-yl]-N-[(3,5-dichlorophenyl)methyl]cyclopropan-1-amine], the EC50 was 1260 to 10000 nM.

As for `CC(CCCCN)c1ccc(Cl)c(CNC2(c3cnccc3-c3ccccc3OC3CC3)CC2)c1` (centres unmarked) [Compound I-242, N-[[5-(6-aminohexan-2-yl)-2-chlorophenyl]methyl]-1-[4-(2-cyclopropoxyphenyl)pyridin-3-yl]cyclopropan-1-amine], the EC50 is under 100 nM.

With `COCCN(CCCCc1cc(Cl)c(COC2(c3cnccc3-c3ccccc3OC3CC3)CC2)cc1Cl)C(=O)[C@@H](O)[C@@H](O)[C@H](O)[C@@H](O)CO` [Compound I-206, (2S,3S,4R,5S)-N-{4-[2,5-dichloro-4-({1-[4-(2-cyclopropoxyphenyl)pyridin-3-yl]cyclopropoxy}methyl)phenyl]butyl}-2,3,4,5,6-pentahydroxy-N-(2-methoxyethyl)hexanamide], the EC50 was under 100 nM.

As for `CCCC(=O)N(CCCCc1cc(Cl)c(COC2(c3cnccc3-c3ccccc3OC3CC3)CC2)cc1Cl)C[C@H](O)[C@@H](O)[C@H](O)[C@H](O)CO` [Compound I-74, N-{4-[2,5-dichloro-4-({1-[4-(2-cyclopropoxyphenyl)pyridin-3-yl]cyclopropoxy}methyl)phenyl]butyl}-N-[(2S,3R,4R,5R)-2,3,4,5,6-pentahydroxyhexyl]butanamide], the EC50 is 126 to 1000 nM.

As for `CC(C)N(C[C@H](O)[C@@H](O)[C@H](O)[C@H](O)CO)C(=O)CCCSc1ccc(Cl)c(COC2(c3cnccc3-c3ccccc3OC3CC3)CC2)c1` [Compound I-668, 4-{[4-chloro-3-({1-[4-(2-cyclopropoxyphenyl)pyridin-3-yl]cyclopropoxy}methyl)phenyl]sulfanyl}-N-[(2S,3R,4R,5R)-2,3,4,5,6-pentahydroxyhexyl]-N-(propan-2-yl)butanamide], the EC50 was under 100 nM.

On to `CN(CCCCNC(=O)NCCCCN(C)S(=O)(=O)c1ccc(Cl)c(COC2(c3cnccc3-c3ccccc3OC3CC3)CC2)c1)S(=O)(=O)c1ccc(Cl)c(COC2(c3cnccc3-c3ccccc3OC3CC3)CC2)c1` [Compound I-767, N,N′-((carbonylbis(azanediyl))bis(butane-4,1-diyl))bis(4-chloro-3-((1-(4-(2-cyclopropoxyphenyl)pyridin-3-yl)cyclopropoxy)methyl)-N-methylbenzenesulfonamide)], for which the EC50 is 126 to 1000 nM.

`CNC(=O)CN(C[C@H](O)[C@@H](O)[C@H](O)[C@H](O)CO)C(=O)CCCSc1ccc(Cl)c(COC2(c3cnccc3-c3ccccc3OC3CC3)CC2)c1` [Compound I-670, 4-{[4-chloro-3-({1-[4-(2-cyclopropoxyphenyl)pyridin-3-yl]cyclopropoxy}methyl)phenyl]sulfanyl}-N-[(methylcarbamoyl)methyl]-N-[(2S,3R,4R,5R)-2,3,4,5,6-pentahydroxyhexyl]butanamide]: the EC50 was 126 to 1000 nM.

In the case of `CC(CCCCNC(=O)[C@@H](O)[C@@H](O)[C@H](O)[C@@H](O)CO)c1ccc(Cl)c(COC2(c3cnccc3-c3ccccc3OC3CC3)CC2)c1` (stereo partly drawn) [Compound I-308, (2S,3S,4R,5S)-N-{5-[4-chloro-3-({1-[4-(2-cyclopropoxyphenyl)pyridin-3-yl]cyclopropoxy}methyl)phenyl]hexyl}-2,3,4,5,6-pentahydroxyhexanamide], the EC50 is under 100 nM.

Consider `CS(=O)(=O)CCN(CCCCSc1ccc(Cl)c(COC2(c3cnccc3-c3ccccc3OC3CC3)CC2)c1)C(=O)[C@@H](O)[C@@H](O)[C@H](O)[C@@H](O)CO` [Compound I-559, (2S,3S,4R,5S)-N-(4-{[4-chloro-3-({1-[4-(2-cyclopropoxyphenyl)pyridin-3-yl]cyclopropoxy}methyl)phenyl]sulfanyl}butyl)-2,3,4,5,6-pentahydroxy-N-(2-methanesulfonylethyl)hexanamide], for which the EC50 is under 100 nM.

As to `O=C(NCCCCc1cc(Cl)c(COC2(c3cnccc3-c3ccccc3OC3COC3)CC2)cc1Cl)NC[C@H](O)[C@@H](O)[C@H](O)[C@H](O)CO` [Compound I-193, 1-(4-{2,5-dichloro-4-[(1-{4-[2-(oxetan-3-yloxy)phenyl]pyridin-3-yl}cyclopropoxy)methyl]phenyl}butyl)-3-[(2S,3R,4R,5R)-2,3,4,5,6-pentahydroxyhexyl]urea], the EC50 is under 100 nM.

As to `Cc1ccc(CCCCNC(=O)NC[C@H](O)[C@@H](O)[C@H](O)[C@H](O)CO)cc1COC1(c2cnccc2-c2ccccc2OC2CC2)CC1` [Compound I-239, 1-{4-[3-({1-[4-(2-cyclopropoxyphenyl)pyridin-3-yl]cyclopropoxy}methyl)-4-methylphenyl]butyl}-3-[(2S,3R,4R,5R)-2,3,4,5,6-pentahydroxyhexyl]urea], the EC50 is 126 to 1000 nM.

In the case of `CC(C)N(CCCCNC(=O)NC[C@H](O)[C@@H](O)[C@H](O)[C@H](O)CO)S(=O)(=O)c1ccc(Cl)c(COC2(c3cnccc3-c3ccccc3OC3CC3)CC2)c1` [Compound I-391, 3-[(2S,3R,4R,5R)-2,3,4,5,6-pentahydroxyhexyl]-1-[4-[N-(propan-2-yl)[4-chloro-3-([1-[4-(2-cyclopropoxyphenyl)pyridin-3-yl]cyclopropoxy]methyl)benzene]sulfonamido]butyl]urea], the EC50 is under 100 nM.

Take `CC(C)CN(CCCCNC(=O)N[C@@H](CO)[C@@H](O)[C@H](O)[C@H](O)CO)S(=O)(=O)c1ccc(Cl)c(COC2(c3cnccc3-c3ccccc3OC3CC3)CC2)c1` [Compound I-761, 4-chloro-3-((1-(4-(2-cyclopropoxyphenyl)pyridin-3-yl)cyclopropoxy)methyl)-N-isobutyl-N-(4-(3-((2S,3R,4S,5R)-1,3,4,5,6-pentahydroxyhexan-2-yl)ureido)butyl)benzenesulfonamide]: the EC50 is under 100 nM.
